Measurements taken from PubChem BioAssay AID256 (DTP/NCI, 2004).
Inconclusive results and toxic doses are left out. Rule for the calls: active = survival T/C of 150% or more; inactive = T/C below 125% in these data.

Tested on: CD2F1 mice, L1210 leukemia ip, survival T/C
Experiment: NCI In Vivo Anticancer Drug Screen. Data for tumor model L1210 Leukemia (intraperitoneal) in CD2F1 (CDF1) mice
Settings: endpoint: mean survival time, higher = longer survival
How it was run: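 Implant tumor; dose compound or vehicle; measure endpoint in both groups; report treated divided by control.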

[1] = dose: 100.0 mg/kg/injection, schedule: Q01DX001 (ip), vehicle: saline
[2] = dose: 200.0 mg/kg/injection, schedule: Q01DX001 (ip), vehicle: saline
[3] = dose: 12.5 mg/kg/injection, schedule: Q04DX003 (ip), vehicle: saline with Tween-80
[4] = dose: 50.0 mg/kg/injection, schedule: Q01DX009 (ip), vehicle: saline with Tween-80

Measured: T/C

CCOC(=O)c1ccc(NC(=O)c2ccc(OCCOc3ccc(C(C)(C)CC(C)(C)C)cc3)c(NC(=O)CC(=O)c3cccc([N+](=O)[O-])c3)c2)cc1
inactive: dose: 100.0 mg/kg/injection, schedule: Q01DX009 (ip), vehicle: Klucel (hydroxypropylcellulose) (HPC) 92 % of control | dose: 100.0 mg/kg/injection, schedule: Q04DX003 (ip), vehicle: Klucel (hydroxypropylcellulose) (HPC) 111 % of control | dose: 200.0 mg/kg/injection, schedule: Q01DX009 (ip), vehicle: Klucel (hydroxypropylcellulose) (HPC) 92 % of control | dose: 200.0 mg/kg/injection, schedule: Q04DX003 (ip), vehicle: Klucel (hydroxypropylcellulose) (HPC) 100 % of control | dose: 400.0 mg/kg/injection, schedule: Q01DX009 (ip), vehicle: Klucel (hydroxypropylcellulose) (HPC) 103 % of control | dose: 400.0 mg/kg/injection, schedule: Q04DX003 (ip), vehicle: Klucel (hydroxypropylcellulose) (HPC) 102 % of control

CC1(C)C(O)(C#N)C(C)(C)C1(O)C#N (centres undefined)
inactive: dose: 6.25 mg/kg/injection, schedule: Q04DX003 (ip), vehicle: saline 102 % of control | dose: 12.5 mg/kg/injection, schedule: Q04DX003 (ip), vehicle: saline 97 % of control

CCCCCCCCCCCCCCCC(=O)O[C@@]12C[C@@H](C)[C@@]3(O)[C@@H](C=C(CO)C[C@]4(O)C(=O)C(C)=C[C@@H]34)[C@@H]1C2(C)C
inactive: dose: 0.06 mg/kg/injection, schedule: Q01DX009 (ip), vehicle: other 98 % of control | dose: 0.12 mg/kg/injection, schedule: Q01DX009 (ip), vehicle: saline 103 % of control | dose: 0.13 mg/kg/injection, schedule: Q01DX009 (ip), vehicle: other 88 % of control | dose: 0.25 mg/kg/injection, schedule: Q01DX009 (ip), vehicle: other 94 % of control | dose: 0.25 mg/kg/injection, schedule: Q01DX009 (ip), vehicle: saline 102 % of control | dose: 0.5 mg/kg/injection, schedule: Q01DX009 (ip), vehicle: other 102 % of control | dose: 0.5 mg/kg/injection, schedule: Q01DX009 (ip), vehicle: saline 103 % of control | dose: 1.0 mg/kg/injection, schedule: Q01DX009 (ip), vehicle: saline 102 % of control

O=C(O)CC(C(=O)O)=C(c1ccccc1)c1ccccc1
inactive: [1] 98 % of control | [2] 95 % of control | dose: 400.0 mg/kg/injection, schedule: Q01DX001 (ip), vehicle: saline 101 % of control

O=[As](O)(CC(O)c1ccccc1)c1cccc(Cl)c1 (centres undefined)
inactive: dose: 6.25 mg/kg/injection, schedule: Q04DX003 (ip), vehicle: saline with Tween-80 104 % of control | [3] 119 % of control

Cc1ccc(S(=O)(=O)NC(Cc2ccccc2)C(=O)CCl)cc1 (centres undefined)
inactive: [4] 92 % of control | dose: 100.0 mg/kg/injection, schedule: Q01DX009 (ip), vehicle: saline with Tween-80 96 % of control | dose: 200.0 mg/kg/injection, schedule: Q01DX009 (ip), vehicle: saline with Tween-80 90 % of control

COc1ccc2[nH]cc(CCN(C)C)c2c1
inactive: dose: 12.5 mg/kg/injection, schedule: Q01DX009 (ip), vehicle: saline with Tween-80 94 % of control | [3] 100 % of control | dose: 25.0 mg/kg/injection, schedule: Q01DX009 (ip), vehicle: saline with Tween-80 91 % of control | dose: 25.0 mg/kg/injection, schedule: Q04DX003 (ip), vehicle: saline with Tween-80 95 % of control | [4] 92 % of control | dose: 50.0 mg/kg/injection, schedule: Q04DX003 (ip), vehicle: saline with Tween-80 96 % of control

COC(=O)C1(C)CCCC2(C)C1CCC13C(O)C(C(C)C)C1CC23 (centres undefined)
inactive: dose: 100.0 mg/kg/injection, schedule: Q01DX001 (ip), vehicle: saline with Tween-80 86 % of control | dose: 200.0 mg/kg/injection, schedule: Q01DX001 (ip), vehicle: saline with Tween-80 91 % of control | dose: 400.0 mg/kg/injection, schedule: Q01DX001 (ip), vehicle: saline with Tween-80 97 % of control

CCOC(=O)c1c(N)sc2c1CCN(Cc1ccccc1)C2
inactive: dose: 100.0 mg/kg/injection, schedule: Q04DX003 (ip), vehicle: saline with Tween-80 98 % of control | dose: 200.0 mg/kg/injection, schedule: Q04DX003 (ip), vehicle: saline with Tween-80 93 % of control | dose: 400.0 mg/kg/injection, schedule: Q04DX003 (ip), vehicle: saline with Tween-80 88 % of control

Nc1cccc[n+]1CC(O)C(=O)[O-] (centres undefined)
inactive: dose: 50.0 mg/kg/injection, schedule: Q01DX001 (ip), vehicle: saline 107 % of control | [1] 98 % of control | [2] 101 % of control
